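These data come from cells grown in 96-well plates and exposed to compound for 48 hours at five concentrations. GI50: concentration for 50% inhibition of growth.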 Activity calls are given as the source filed them. Rule as the data show it: active = GI50 up to about 1.1 µM and inactive = higher.
Tests used:
Test in all cases: NCI-60 cell line screen, 48 h
786-0 = tested on: 786-0
ACHN = tested on: ACHN
BT-549 = tested on: BT-549
CAKI-1 = tested on: CAKI-1
COLO 205 = tested on: COLO 205
DU-145 = tested on: DU-145
EKVX = tested on: EKVX
HCT-116 = tested on: HCT-116
HCT-15 = tested on: HCT-15
HOP-62 = tested on: HOP-62
K562 = tested on: K562
KM12 = tested on: KM12
LOX IMVI = tested on: LOX IMVI
M14 = tested on: M14
MCF7 = tested on: MCF7
MDA-MB-231 = tested on: MDA-MB-231
MDA-MB-435 = tested on: MDA-MB-435
MDA-N = tested on: MDA-N
MOLT-4 = tested on: MOLT-4
NCI-H23 = tested on: NCI-H23
OVCAR-3 = tested on: OVCAR-3
OVCAR-5 = tested on: OVCAR-5
OVCAR-8 = tested on: OVCAR-8
PC-3 = tested on: PC-3
SF-295 = tested on: SF-295
SK-MEL-28 = tested on: SK-MEL-28
SK-MEL-2 = tested on: SK-MEL-2
SK-OV-3 = tested on: SK-OV-3
SNB-19 = tested on: SNB-19
SNB-75 = tested on: SNB-75
SR = tested on: SR
SW-620 = tested on: SW-620
TK-10 = tested on: TK-10
UACC-257 = tested on: UACC-257
UACC-62 = tested on: UACC-62
A498 = tested on: A498
A549 = tested on: A549
CCRF-CEM = tested on: CCRF-CEM
HCC 2998 = tested on: HCC 2998
HOP-92 = tested on: HOP-92
HT-29 = tested on: HT-29
IGROV-1 = tested on: IGROV-1
Malme-3M = tested on: Malme-3M
NCI-H460 = tested on: NCI-H460
NCI-H522 = tested on: NCI-H522
NCI/ADR-RES = tested on: NCI/ADR-RES
RPMI-8226 = tested on: RPMI-8226
SF-268 = tested on: SF-268
SF-539 = tested on: SF-539
SK-MEL-5 = tested on: SK-MEL-5
SN12C = tested on: SN12C
T47D = tested on: T47D
U-251 = tested on: U-251
UO-31 = tested on: UO-31
HL-60 = tested on: HL-60
NCI-H226 = tested on: NCI-H226
OVCAR-4 = tested on: OVCAR-4
RXF 393 = tested on: RXF 393
Hs-578T = tested on: Hs-578T

Measured: GI50

O=c1[nH]c2ccc(CC(=S)N3CCCCC3)cc2s1
inactive: 786-0 > 100 µM | ACHN > 100 µM | BT-549 > 100 µM | CAKI-1 91.6 µM | COLO 205 > 100 µM | DU-145 > 100 µM | HCT-116 > 100 µM | HOP-62 71.9 µM | K562 > 100 µM | KM12 > 100 µM | LOX IMVI > 100 µM | M14 > 100 µM | MCF7 > 100 µM | MDA-MB-231 > 100 µM | MDA-MB-435 > 100 µM | MDA-N > 100 µM | MOLT-4 > 100 µM | NCI-H23 > 100 µM | OVCAR-3 > 100 µM | OVCAR-5 > 100 µM | OVCAR-8 > 100 µM | PC-3 > 100 µM | SF-295 > 100 µM | SK-MEL-28 > 100 µM | SK-MEL-2 > 100 µM | SK-OV-3 > 100 µM | SNB-19 > 100 µM | SR 26.4 µM | SW-620 > 100 µM | TK-10 > 100 µM | UACC-257 > 100 µM | UACC-62 > 100 µM
> 100 µM: HCT-15
active: EKVX 0.214 µM | SNB-75 0.163 µM

C=CC1(CCC(Br)C(C)(C)Cl)CO1 (stereo unspecified)
inactive: 786-0 > 10 µM | A498 > 10 µM | A549 > 10 µM | ACHN > 10 µM | BT-549 > 10 µM | CAKI-1 > 10 µM | CCRF-CEM > 10 µM | COLO 205 > 10 µM | DU-145 > 10 µM | EKVX > 10 µM | HCC 2998 > 10 µM | HCT-116 > 10 µM | HOP-62 > 10 µM | HOP-92 > 10 µM | HT-29 > 10 µM | IGROV-1 > 10 µM | K562 > 10 µM | KM12 > 10 µM | M14 > 10 µM | MCF7 > 10 µM | MDA-MB-231 > 10 µM | MDA-MB-435 > 10 µM | MDA-N > 10 µM | MOLT-4 > 10 µM | Malme-3M > 10 µM | NCI-H460 > 10 µM | NCI-H522 > 10 µM | NCI/ADR-RES > 10 µM | OVCAR-3 > 10 µM | OVCAR-5 > 10 µM | OVCAR-8 > 10 µM | PC-3 > 10 µM | RPMI-8226 > 10 µM | SF-268 > 10 µM | SF-295 > 10 µM | SF-539 > 10 µM | SK-MEL-28 > 10 µM | SK-MEL-2 > 10 µM | SK-MEL-5 > 10 µM | SK-OV-3 > 10 µM | SN12C > 10 µM | SNB-19 > 10 µM | SNB-75 > 10 µM | SW-620 > 10 µM | T47D > 10 µM | TK-10 > 10 µM | U-251 > 10 µM | UO-31 > 10 µM
> 10 µM: HCT-15

CCCCOc1ccc(S(=O)(=O)/N=C(\NN)Nc2ccc(Cl)cc2)cc1
inactive: 786-0 17.1 µM | A498 47.1 µM | A549 17.8 µM | ACHN 69.7 µM | BT-549 > 100 µM | CAKI-1 21.5 µM | CCRF-CEM 20 µM | COLO 205 18 µM | DU-145 17.2 µM | EKVX 45.4 µM | HCT-116 20 µM | HL-60 31 µM | HOP-62 20.4 µM | HOP-92 25.2 µM | HT-29 22.3 µM | IGROV-1 26.1 µM | K562 31.7 µM | KM12 32.7 µM | LOX IMVI 19.8 µM | M14 24.2 µM | MCF7 32.1 µM | MDA-MB-231 20.2 µM | MDA-N 32.3 µM | MOLT-4 23.3 µM | Malme-3M 26.9 µM | NCI-H226 29.6 µM | NCI-H23 36.1 µM | NCI-H460 16.4 µM | NCI/ADR-RES 24.5 µM | OVCAR-3 20.8 µM | OVCAR-4 19.1 µM | OVCAR-5 21 µM | OVCAR-8 19 µM | PC-3 17.7 µM | RPMI-8226 30.1 µM | RXF 393 16.7 µM | SF-268 17.4 µM | SF-295 23.4 µM | SF-539 17.7 µM | SK-MEL-28 43.7 µM | SK-MEL-2 > 100 µM | SK-MEL-5 35.9 µM | SK-OV-3 27 µM | SN12C 19.2 µM | SNB-19 53.5 µM | SNB-75 12.2 µM | SR 21.2 µM | SW-620 29.4 µM | T47D 16.2 µM | TK-10 43.5 µM | U-251 16.4 µM | UACC-257 23.1 µM | UACC-62 > 100 µM | UO-31 18.2 µM
36 µM: HCT-15

COc1ccc(C2=Nc3cc(C)c(C)cc3NC(c3ccccc3)C2)cc1 (stereo unspecified)
inactive: 786-0 > 100 µM | A498 > 100 µM | A549 44.7 µM | ACHN > 100 µM | BT-549 > 100 µM | CAKI-1 > 100 µM | CCRF-CEM 17.3 µM | COLO 205 17.7 µM | DU-145 > 100 µM | EKVX > 100 µM | HCC 2998 > 100 µM | HCT-116 27 µM | HL-60 18.7 µM | HOP-62 > 100 µM | HOP-92 24.1 µM | HT-29 20.1 µM | Hs-578T > 100 µM | IGROV-1 > 100 µM | K562 21.9 µM | KM12 > 100 µM | LOX IMVI 28.7 µM | M14 > 100 µM | MCF7 6.46 µM | MDA-MB-231 > 100 µM | MDA-MB-435 50.2 µM | MOLT-4 16.3 µM | Malme-3M 40.5 µM | NCI-H226 > 100 µM | NCI-H23 > 100 µM | NCI-H460 46.2 µM | NCI-H522 30.8 µM | NCI/ADR-RES 43.4 µM | OVCAR-3 > 100 µM | OVCAR-4 > 100 µM | OVCAR-5 > 100 µM | OVCAR-8 > 100 µM | PC-3 > 100 µM | RPMI-8226 15.9 µM | RXF 393 > 100 µM | SF-268 > 100 µM | SF-295 > 100 µM | SF-539 > 100 µM | SK-MEL-28 > 100 µM | SK-MEL-2 > 100 µM | SK-MEL-5 29.6 µM | SK-OV-3 > 100 µM | SN12C > 100 µM | SNB-19 > 100 µM | SR 4.86 µM | SW-620 > 100 µM | T47D 21.7 µM | TK-10 > 100 µM | U-251 > 100 µM | UACC-257 34.4 µM | UACC-62 > 100 µM | UO-31 57 µM
41.4 µM: HCT-15
